Holding throughout (format): in vivo
Assay [1] relates to Crofton weed. The experiment in a line: Needle puncture test on Crofton weed with washes recovered from compound-treated soil. The following applies: after soil treatment (3 hours). On the procedure:
Compounds 1, 2, 3, and 40 were dissolved in small amount of methanol and diluted with distilled water to concentration of 50 μg/mL. The solution was sprayed to the soil sample until the soil was wet but not overflows. After standing at room temperature for 3 hours, the soil sample was washed with water and methanol. The wash solution was collected and concentrated. Such process was repeated three times. The concentrated solutions were used for herbicidal activity test using the method of needle puncture on Crofton weed. Methanol water solution and pure water were used as control. The experiment for every sample was repeated six times. The spot diameters were measured with vernier caliper after the plant was kept under natural light at 25° C. for 24 hours (Table 11).

Assay [2] concerns Crofton weed. The experiment in a line: Spray on leaves and stems of three-leaf-stage Crofton weed seedlings grown in pots in a greenhouse. The following applies: 50 μg/mL spray, assessed two days later. Details: key: 4: Plant completely dead; 3: Two thirds of the plant stems and leaves dried out; 2: Half of the plant stems and leaves dried out; 1: One third of the plant stems and leaves dried out; 0: No damage at all. On the procedure:
Compounds 1, 2, 3, and 40 were separately dissolved in a small amount of methanol. The solutions were then diluted with distilled water to a concentration of 50 μg/mL. A mixture of methanol and water in the same ratio as the sample solution was also prepared and used as control in the experiment. The solutions were sprayed on leaves and stems of three-leaf-stage Crofton weed seedlings. All the plants were grown in pot in a greenhouse. The leaves were properly wet by the solutions for consistency and the treatment was repeated 3 times. The measurement of the plant damage was calculated by the formula: Damage Index=Σ(damage level×number of plants)×100/4/number of plants in each treatment.

The next assay deals with Mosla scabra. Briefly: Leaf piece damage test. Also noted: key: 4: The leaf completely dead; 3: Two third of the leaf withered; 2: One half of the leaf withered; 1: Only edge of the leaf withered; 0: Not damage at all. The following applies: 50 μg/mL, 4 days. The method, boiled down:
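Leaf pieces 5 mm across, taken from each weed's second leaf, receive three applications of compound at 50 μg/mL in dilute aqueous methanol. Each treatment uses five pieces. Four days on, damage levels are recorded and combined into a weighted index scaled to 100.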

Take `CCCC(Cl)C1NC(=O)C(C(C)=O)=C1O` (stereo not shown) [Compound 40]: the “Average diameter of the spot after 24 h, H2O wash” value with Crofton weed [1] (H2O wash) was 0.336 ± 0.050 mm. Also, the “Average diameter of the spot after 24 h, Methanol wash” value with Crofton weed [1] (Methanol wash) is on record as 0.416 ± 0.024 mm. For the same molecule, the figures for the “Damage level” value in the assay with Crofton weed [2] and with Mosla scabra were 4 and 2, respectively. On to `CCC(C)C1NC(=O)C(C(=O)CCc2cc(Cl)cc(Cl)c2)=C1O` (stereo not shown) [Compound 48], for which the Damage level with Mosla scabra stood at 2. Take `CCCCCCC1NC(=O)C(C(C)=O)=C1O` (stereo not shown) [Compound 16]: the Damage level with Mosla scabra amounted to 2.

In turn, `CCC(C)C1NC(=O)C(C(=O)CCF)=C1O` (stereo not shown) [Compound 44] gave a Damage level in the assay with Mosla scabra of 2. The same measure, in the same setting: then `CCCC(C#N)C1NC(=O)C(=C(C)O)C1=O` (stereo not shown) [Compound 53], with 2.

`CCCCCC1NC(=O)C(C(C)=O)=C1O` (stereo not shown) [Compound 15] gave a Damage level in the assay on Mosla scabra of 2. Consider `CCCCC1NC(=O)C(C(C)=O)=C1O` (stereo not shown) [Compound 14], for which the Damage level with Mosla scabra is on record as 2.

For the origin of these results see patent publication US9468209B2, “Method for eradicating weeds with derivatives of 3-acetyl-5-sec-butyl-4-hydroxy-3-pyrrolin-2-one” (priority 2012, dated 2016).
